{
  "source": "patent US10675333B2",
  "about": "“Infusion pump” (priority 2016, dated 2020)",
  "test_system": "subject with a body weight of 51.5 kg",
  "assay": "GnRH stimulation test (LH and FSH levels)",
  "format": "in vivo, human",
  "experimental": "In the test, a subject with a body weight of 51.5 kg was included, and their luteinizing hormone (LH) and follicle-stimulating hormone (FSH) levels were measured as test indicators both in mIU/mL.",
  "data": [
    {"substance": "GnRH: stimulating agent of the GnRH stimulation test; not further described (QHWSYGLRPG; Gonadoliberin-1; UniProt P01148 24-33, looked up)", "values": [
      {"measurement": "FSH", "setting": "0 min (reference time)", "result": 3.49, "unit": "mIU/mL"},
      {"measurement": "LH", "setting": "0 min (reference time)", "result": 0.99, "unit": "mIU/mL"},
      {"measurement": "FSH", "setting": "25 min", "result": 4.47, "unit": "mIU/mL"},
      {"measurement": "LH", "setting": "25 min", "result": 3.2, "unit": "mIU/mL"},
      {"measurement": "FSH", "setting": "45 min", "result": 5.44, "unit": "mIU/mL"},
      {"measurement": "LH", "setting": "45 min", "result": 3.76, "unit": "mIU/mL"},
      {"measurement": "FSH", "setting": "90 min", "result": 6.21, "unit": "mIU/mL"},
      {"measurement": "LH", "setting": "90 min", "result": 3.76, "unit": "mIU/mL"},
      {"measurement": "FSH", "setting": "180 min", "result": 6.12, "unit": "mIU/mL"},
      {"measurement": "LH", "setting": "180 min", "result": 2.46, "unit": "mIU/mL"},
      {"measurement": "FSH maximum level", "setting": "maximum stimulated level", "result": 6.21, "unit": "mIU/mL"},
      {"measurement": "LH maximum level", "setting": "maximum stimulated level", "result": 3.76, "unit": "mIU/mL"}
    ]}
  ]
}
